Read-outs that look alike come from different tables or passages of the source.

What all share (format): cell-based
In test [1] the target is T1, CaV2.2 (Homo sapiens, UniProt Q00975).
T1 construct: expressed in transfected cells; host or cells: unnamed doxycycline-inducible cell line
Put plainly: High-throughput CaV2.2/Kir2.3 FLIPR fluorescent assay. The conditions noted are these: Fluo-4 FLIPR, closed or inactivated state not stated, read-out: FLIPR data CaV2.2. A digest of the protocol: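 IC50 was derived by logistic fitting of the FLIPR Fluo-4 signal recorded over 3 min after a 130 mM KCl stimulus. Before stimulation, cells (channel expression induced with doxycycline, 29 °C on assay day) were kept in pH 7.4 buffer with 2 mM KCl for the closed-state format or 12.5 mM KCl for the inactivated-state format.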

The target of test [2] is T2, CaV3.1 (Homo sapiens, UniProt O43497).
T2 construct: expressed in transfected cells; host or cells: unnamed doxycycline-inducible cell line
Put plainly: High-throughput CaV3.1 T-type FLIPR fluorescent assay. To be noted: Fluo-4 FLIPR. As to the method:
Cells were plated in 384-well, clear-bottom, black-walled, poly-D-lysine coated plates (Becton Dickinson, Franklin Lake, N.J.) 2 days prior to use in the FLIPR assay. 100 μL of cells (2.0×10^6 cell/mL) containing doxycyline (Sigma-Aldrich, 1.5 μg/mL; to induce channel expression) were added to each well using a Multidrop (Thermo Scientific, Waltham, Mass.) and were maintained in 5% CO2 incubator at 37° C. On the morning of the assay, cells were transferred to a 5% CO2 incubator at 29° C.
Cells were washed with a wash buffer containing (in mM): 118 NaCl, 18.4 HEPES, 11.7 D-glucose, 0.05 CaCl2, 0.5 MgSO4, 1 KCl, and 1.2 KH2PO4, with the pH adjusted to 7.2 with NaOH. 4.4 μM of the fluorescent indicator dye, Fluo-4 (Invitrogen), prepared in pluronic acid
(Sigma-Aldrich), was loaded into the wells and incubated for 45 minutes at 29° C. in 5% CO2. Cells were then rinsed with the following low Ca^2+ buffer (in mM): 0.34 Na2HPO4, 4.2 NaHCO3, 0.44 KH2PO4, 0.41 MgSO4, 0.49 MgCl2-6H2O, 20 HEPES, 5.5 D-Glucose, 137 NaCl, 5.3 KCl, and 0.001 CaCl2, with 0.1% BSA and the pH adjusted to 7.2 with NaOH. Concentration-dependent response curves were generated from 5 mM stock solutions prepared in DMSO (Sigma-Aldrich) and diluted in the buffer containing low Ca^2+ and incubated for 20 minutes at 29° C. in 5% CO2. Calcium entry was evoked with an addition of (in mM): 0.34 Na2HPO4, 4.2 NaHCO3, 0.44 KH2PO4, 0.41 MgSO4, 0.49 MgCl2-6H2O, 20 HEPES, 5.5 D-Glucose, 137 NaCl, 5.3 KCl, and 6 CaCl2, with 0.1% BSA and the pH adjusted to 7.2 with NaOH. A change in the Fluo-4 fluorescence signal was assessed using FLIPR^TETRA™ instrument (Molecular Devices, Sunnyvale, Calif.) for 3 minutes following the elevation of extracellular KCl using an illumination wavelength of 470-495 nm with emissions recorded at 515-575 nm.
Concentration-dependent response curves were obtained by comparing the fluorescence signal in the presence of compound and fitted with a logistic function (1) to obtain the concentration that inhibited 50% (IC50) of the RLU signal using OriginPro v.7.5 software (OriginLab, Northampton, Mass.).
To assess the quality of the FLIPR assays the Z-factor (2) was used to quantify the suitability of the assay conditions using the following equation: […]
Data are expressed as mean and standard deviation (SD).

In test [3] the target is T3, CaV3.2 (Homo sapiens, UniProt O95180).
T3 construct: expressed in transfected cells; host or cells: unnamed doxycycline-inducible cell line
Put plainly: High-throughput CaV3.2/Kir2.3 T-type FLIPR fluorescent assay. To be noted: Fluo-4 FLIPR, closed or inactivated state not stated. A digest of the protocol:
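Doxycycline-induced cells loaded with Fluo-4, preincubated 20 min at 29°C with compound in 2 mM KCl (closed-state) or 7.6 mM KCl (inactivated-state) buffer, pH 7.4. Calcium entry triggered by 12 mM or 14.5 mM KCl respectively; fluorescence read 3 min by FLIPR, IC50 from logistic fit.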

T3 sequence (O95180 whole entry): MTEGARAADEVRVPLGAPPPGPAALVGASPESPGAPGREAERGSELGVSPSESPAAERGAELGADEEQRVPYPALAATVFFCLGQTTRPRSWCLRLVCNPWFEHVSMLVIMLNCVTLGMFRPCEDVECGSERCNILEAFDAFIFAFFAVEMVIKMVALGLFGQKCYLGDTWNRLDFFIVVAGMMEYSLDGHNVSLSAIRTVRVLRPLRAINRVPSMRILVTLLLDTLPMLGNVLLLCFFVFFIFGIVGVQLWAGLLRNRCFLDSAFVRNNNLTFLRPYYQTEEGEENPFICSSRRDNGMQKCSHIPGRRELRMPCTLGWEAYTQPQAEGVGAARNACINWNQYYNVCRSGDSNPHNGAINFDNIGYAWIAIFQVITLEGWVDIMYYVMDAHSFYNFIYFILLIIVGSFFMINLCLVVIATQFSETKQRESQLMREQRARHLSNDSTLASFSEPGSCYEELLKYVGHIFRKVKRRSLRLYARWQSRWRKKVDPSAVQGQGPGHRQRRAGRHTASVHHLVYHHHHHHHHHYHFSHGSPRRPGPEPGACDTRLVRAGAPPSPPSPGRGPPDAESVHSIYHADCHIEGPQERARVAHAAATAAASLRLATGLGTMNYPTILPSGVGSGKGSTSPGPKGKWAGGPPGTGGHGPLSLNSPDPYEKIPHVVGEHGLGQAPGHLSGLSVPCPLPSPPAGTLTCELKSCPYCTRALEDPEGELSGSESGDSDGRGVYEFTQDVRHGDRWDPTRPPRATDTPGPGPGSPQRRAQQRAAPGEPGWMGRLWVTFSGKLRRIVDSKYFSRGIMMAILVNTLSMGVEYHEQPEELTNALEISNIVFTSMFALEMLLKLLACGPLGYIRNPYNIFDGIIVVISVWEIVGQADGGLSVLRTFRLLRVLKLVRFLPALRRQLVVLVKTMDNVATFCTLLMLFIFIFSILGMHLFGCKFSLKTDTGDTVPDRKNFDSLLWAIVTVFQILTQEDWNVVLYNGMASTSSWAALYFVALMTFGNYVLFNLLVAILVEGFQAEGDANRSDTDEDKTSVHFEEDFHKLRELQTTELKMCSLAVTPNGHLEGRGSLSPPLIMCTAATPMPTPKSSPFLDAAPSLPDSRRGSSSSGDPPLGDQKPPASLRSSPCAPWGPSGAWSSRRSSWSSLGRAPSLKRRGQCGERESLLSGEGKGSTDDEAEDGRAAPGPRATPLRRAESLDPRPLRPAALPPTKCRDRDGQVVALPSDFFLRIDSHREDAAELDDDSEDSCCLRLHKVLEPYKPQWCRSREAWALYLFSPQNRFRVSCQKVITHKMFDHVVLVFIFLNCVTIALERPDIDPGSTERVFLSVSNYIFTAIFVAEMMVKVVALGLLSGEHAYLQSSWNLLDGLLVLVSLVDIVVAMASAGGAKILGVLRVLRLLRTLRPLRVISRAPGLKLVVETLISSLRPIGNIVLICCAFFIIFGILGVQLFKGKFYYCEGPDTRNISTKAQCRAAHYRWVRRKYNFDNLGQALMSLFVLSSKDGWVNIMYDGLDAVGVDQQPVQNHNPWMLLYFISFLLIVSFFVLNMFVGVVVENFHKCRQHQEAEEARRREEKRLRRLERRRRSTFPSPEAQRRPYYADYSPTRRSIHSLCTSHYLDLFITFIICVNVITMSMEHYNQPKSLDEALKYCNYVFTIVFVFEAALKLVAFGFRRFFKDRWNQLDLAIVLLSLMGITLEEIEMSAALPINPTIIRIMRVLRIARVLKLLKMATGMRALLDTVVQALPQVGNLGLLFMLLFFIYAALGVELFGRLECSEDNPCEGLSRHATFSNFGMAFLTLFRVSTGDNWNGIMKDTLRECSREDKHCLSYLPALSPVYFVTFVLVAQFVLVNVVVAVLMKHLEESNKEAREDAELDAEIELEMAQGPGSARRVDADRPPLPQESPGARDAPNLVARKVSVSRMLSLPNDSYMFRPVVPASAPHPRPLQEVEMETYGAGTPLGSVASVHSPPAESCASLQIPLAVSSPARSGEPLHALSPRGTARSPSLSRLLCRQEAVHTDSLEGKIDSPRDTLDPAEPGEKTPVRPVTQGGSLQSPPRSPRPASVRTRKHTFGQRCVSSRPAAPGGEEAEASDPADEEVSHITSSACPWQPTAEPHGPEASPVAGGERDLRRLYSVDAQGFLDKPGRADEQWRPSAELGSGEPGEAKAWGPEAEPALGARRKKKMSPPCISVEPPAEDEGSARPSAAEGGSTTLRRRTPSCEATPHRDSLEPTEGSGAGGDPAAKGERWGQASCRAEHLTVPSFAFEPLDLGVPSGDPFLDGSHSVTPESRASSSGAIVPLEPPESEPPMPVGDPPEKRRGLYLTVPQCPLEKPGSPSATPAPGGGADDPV
T2 sequence (O43497 whole entry): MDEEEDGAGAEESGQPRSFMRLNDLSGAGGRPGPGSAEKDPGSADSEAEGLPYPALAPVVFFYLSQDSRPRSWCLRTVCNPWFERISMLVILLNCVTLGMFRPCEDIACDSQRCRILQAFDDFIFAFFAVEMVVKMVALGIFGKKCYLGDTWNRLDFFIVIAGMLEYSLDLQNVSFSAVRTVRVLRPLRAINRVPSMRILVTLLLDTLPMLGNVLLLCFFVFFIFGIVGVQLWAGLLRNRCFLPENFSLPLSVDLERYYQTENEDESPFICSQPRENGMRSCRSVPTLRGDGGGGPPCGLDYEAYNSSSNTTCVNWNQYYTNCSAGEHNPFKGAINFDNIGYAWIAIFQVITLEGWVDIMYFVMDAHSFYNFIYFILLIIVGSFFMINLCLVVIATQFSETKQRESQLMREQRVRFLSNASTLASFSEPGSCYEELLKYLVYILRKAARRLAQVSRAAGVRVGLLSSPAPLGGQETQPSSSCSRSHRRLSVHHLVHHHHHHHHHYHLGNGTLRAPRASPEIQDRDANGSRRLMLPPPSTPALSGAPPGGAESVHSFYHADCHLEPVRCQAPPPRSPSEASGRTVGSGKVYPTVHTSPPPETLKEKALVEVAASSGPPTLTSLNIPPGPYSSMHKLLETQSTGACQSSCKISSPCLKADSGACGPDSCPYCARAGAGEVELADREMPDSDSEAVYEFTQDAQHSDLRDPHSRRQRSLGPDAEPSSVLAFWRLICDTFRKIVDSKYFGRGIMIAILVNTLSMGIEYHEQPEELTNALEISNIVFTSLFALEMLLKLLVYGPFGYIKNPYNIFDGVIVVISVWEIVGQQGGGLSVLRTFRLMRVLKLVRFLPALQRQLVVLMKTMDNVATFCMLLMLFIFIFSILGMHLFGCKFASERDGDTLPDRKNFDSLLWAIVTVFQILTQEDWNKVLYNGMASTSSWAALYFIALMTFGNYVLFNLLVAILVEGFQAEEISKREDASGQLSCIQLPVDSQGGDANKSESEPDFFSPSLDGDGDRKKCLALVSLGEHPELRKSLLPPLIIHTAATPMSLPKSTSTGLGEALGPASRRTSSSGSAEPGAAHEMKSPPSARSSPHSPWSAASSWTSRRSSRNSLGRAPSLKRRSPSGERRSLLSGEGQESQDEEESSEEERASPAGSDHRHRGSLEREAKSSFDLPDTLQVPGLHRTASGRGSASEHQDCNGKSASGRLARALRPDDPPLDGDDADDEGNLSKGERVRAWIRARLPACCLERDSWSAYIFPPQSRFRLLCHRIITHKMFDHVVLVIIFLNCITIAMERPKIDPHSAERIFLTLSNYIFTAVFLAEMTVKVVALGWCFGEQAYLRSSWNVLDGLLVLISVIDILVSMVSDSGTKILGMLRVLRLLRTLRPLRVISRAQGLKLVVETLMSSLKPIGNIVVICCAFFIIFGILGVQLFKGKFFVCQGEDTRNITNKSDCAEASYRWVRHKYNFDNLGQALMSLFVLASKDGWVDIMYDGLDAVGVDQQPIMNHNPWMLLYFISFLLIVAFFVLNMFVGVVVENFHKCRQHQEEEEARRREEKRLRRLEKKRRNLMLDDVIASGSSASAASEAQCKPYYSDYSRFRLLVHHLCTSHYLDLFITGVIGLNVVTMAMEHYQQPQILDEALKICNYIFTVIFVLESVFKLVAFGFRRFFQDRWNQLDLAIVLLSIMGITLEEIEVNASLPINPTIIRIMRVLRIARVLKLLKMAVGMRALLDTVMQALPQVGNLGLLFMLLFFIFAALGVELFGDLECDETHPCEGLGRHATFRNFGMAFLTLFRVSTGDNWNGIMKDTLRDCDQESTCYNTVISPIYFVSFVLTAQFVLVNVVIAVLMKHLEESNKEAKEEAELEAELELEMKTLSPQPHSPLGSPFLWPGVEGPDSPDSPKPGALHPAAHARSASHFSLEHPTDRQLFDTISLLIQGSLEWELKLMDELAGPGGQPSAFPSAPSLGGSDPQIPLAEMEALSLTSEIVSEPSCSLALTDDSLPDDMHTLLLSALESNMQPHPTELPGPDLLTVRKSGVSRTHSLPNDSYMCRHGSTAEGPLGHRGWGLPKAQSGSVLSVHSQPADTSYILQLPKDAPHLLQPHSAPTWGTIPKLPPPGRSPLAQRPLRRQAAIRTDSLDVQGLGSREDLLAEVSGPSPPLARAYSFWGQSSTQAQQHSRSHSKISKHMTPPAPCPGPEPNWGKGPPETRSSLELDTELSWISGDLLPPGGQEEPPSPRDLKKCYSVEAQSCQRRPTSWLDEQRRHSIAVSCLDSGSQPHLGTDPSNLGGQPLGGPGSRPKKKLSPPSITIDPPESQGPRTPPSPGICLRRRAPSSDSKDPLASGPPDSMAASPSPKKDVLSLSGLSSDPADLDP

In the case of `CC(C)(C(=O)N1CCN(c2cccc(C(F)(F)F)c2)CC1)S(=O)(=O)c1cccc(C(F)(F)F)c1` [Compound 132, 2-methyl-1-(4-(3-(trifluoromethyl)phenyl)piperazin-1-yl)-2-((3-(trifluoromethyl)phenyl)sulfonyl)propan-1-one], the IC50 in test [1] (Table 5) came out at 1210 nM; in test [2] (Table 5), 4080 nM; in test [3] (Table 5) it was 3630 nM.
Take `CC(C)S(=O)(=O)c1cc(C(F)(F)F)cnc1C(=O)NCc1cccc(S(=O)(=O)c2cccc(C(F)(F)F)c2)c1` [Compound 25, 3-(isopropylsulfonyl)-5-(trifluoromethyl)-N-(3-((3-(trifluoromethyl)phenyl)sulfonyl)benzyl)picolinamide]: the IC50 was found to be 170 nM in test [1] (Table 4), 1580 nM in test [2] (Table 4) and 1740 nM in test [3] (Table 4).
As for `CC(C)(C(=O)NCc1cccc(S(=O)(=O)c2cccc(C(F)(F)F)c2)c1)S(=O)(=O)c1cccc(C(F)(F)F)c1` [Compound 226, 2-methyl-2-((3-(trifluoromethyl)phenyl)sulfonyl)-N-(3-((3-(trifluoromethyl)phenyl)sulfonyl)benzyl)propanamide], the results for the IC50 in test [1] (Table 5), in test [2] (Table 5) and in test [3] (Table 5) were 110 nM, 1410 nM and 1200 nM, respectively.
As for `O=C(NCc1ccccc1S(=O)(=O)c1cccc(C(F)(F)F)c1)c1ccc(Cl)c(F)c1` [Compound 36, 4-chloro-3-fluoro-N-(2-((3-(trifluoromethyl)phenyl)sulfonyl)benzyl)benzamide], the IC50 in test [1] (Table 4) stood at 830 nM; in test [2] (Table 4) it was 410 nM; in test [3] (Table 4) it was 770 nM.
Taken in the same sequence, the figures for `CS(=O)(=O)c1nc(C(F)(F)F)ccc1C(=O)NCc1cccc(S(=O)(=O)c2cccc(C(F)(F)F)c2)c1` [Compound 21, 2-(methylsulfonyl)-6-(trifluoromethyl)-N-(3-((3-(trifluoromethyl)phenyl)sulfonyl)benzyl)nicotinamide] were 760 nM, 9070 nM and 2680 nM.
With `CC(C)(CCN1CCn2nc(C(F)(F)F)cc2C1=O)S(=O)(=O)c1cccc(C(F)(F)F)c1` [Compound 187, 5-(3-methyl-3-((3-(trifluoromethyl)phenyl)sulfonyl)butyl)-2-(trifluoromethyl)-6,7-dihydropyrazolo[1,5-a]pyrazin-4(5H)-one], the IC50 stood at 420 nM in test [1] (Table 5), 5050 nM in test [2] (Table 5) and 4310 nM in test [3] (Table 5).
For `CC(C)(C(=O)N1CCC(c2cccc(Cl)c2)CC1)S(=O)(=O)c1cccc(C(F)(F)F)c1` [Compound 133, 1-(4-(3-chlorophenyl)piperidin-1-yl)-2-methyl-2-((3-(trifluoromethyl)phenyl)sulfonyl)propan-1-one] the same measures were 1160 nM, 2160 nM and 4960 nM.
With `N[C@@H]1CCCC[C@H]1C(=O)NCc1ccc(S(=O)(=O)c2cccc(C(F)(F)F)c2)cc1` [Compound 81, (1R,2R)-2-amino-N-(4-((3-(trifluoromethyl)phenyl)sulfonyl)benzyl)cyclohexanecarboxamide], the values for the IC50 in test [1] (Table 4), in test [2] (Table 4) and in test [3] (Table 4) were 680 nM, 8240 nM and 4560 nM, respectively.
Turning to `CS(=O)(=O)c1cc(C(F)(F)F)cnc1C(=O)NCc1ccc(S(=O)(=O)c2cccc(C(F)(F)F)c2)cc1` [Compound 5, 3-(methylsulfonyl)-5-(trifluoromethyl)-N-(4-((3-(trifluoromethyl)phenyl)sulfonyl)benzyl)picolinamide], the IC50 in test [1] (Table 4) stood at 470 nM; in test [2] (Table 4) it was 1350 nM; in test [3] (Table 4), 2370 nM.
Turning to `O=C(NCc1cccc(S(=O)(=O)c2cccc(C(F)(F)F)c2)c1)c1cc(F)cc(Cl)c1` [Compound 18, 3-chloro-5-fluoro-N-(3-((3-(trifluoromethyl)phenyl)sulfonyl)benzyl)benzamide], the IC50 in test [1] (Table 4) was 220 nM; in test [2] (Table 4), 1570 nM; in test [3] (Table 4), 840 nM.
